The record followed here is patent publication EP2646421B1, “7-NITRO-5-PHENYL-1-(PYRROLIDIN-1-YLMETHYL)-1H-BENZO[E][1,4]DIAZEPIN-2(3H)-ONE AND OTHER BENZODIAZEPINE DERIVATIVES” (Pignataro, Giuseppe, priority 2010, dated 2012).

What all share (type): cell-based
One experiment concerns the target T1, NCX1 (Canis lupus familiaris, UniProt P23685).
T1 construct: expressed in transfected cells
Briefly: Fura-2 AM single-cell microfluorimetry, BHK-NCX1 cells. As to conditions: 10 nM (Fig. 2). As to the method:
(§1) The activity of NCX was established by means of three different subclones of baby hamsted kidney (BHK) cells that were stably transfected with one of each NCX isoforms, named BHK-NCX1, BHK-NCX2 and BHK-NCX3. These cell lines were grown on plastic dishes in a mix of DMEM and Ham's F12 media (1:1) (Gibco, Invitrogen, MI, Italy) supplemented with 5% fetal bovine serum, 100 U/ml penicillin, and 100 µg/ml streptomycin (Sigma, St. Louis, Missouri, USA). Cells were cultured in a humidified 5% CO2 atmosphere and at the temperature of 37°C.
(§2) NCX activity has been measured considering the variation of intracellular concentrations of Ca^2+ ions ([Ca^2+]i) due to its activation by means of single-cell microfluorimetry. […] In both cases, this probe will produce an emission at 510 nm; the ratio between the two emission relative to 340 and 380 excitation allow to quantify [Ca^2+]i in the time considering the calibration curve previously performed. […]
(§3) Briefly, BHK cells wild type and/or BHK trasnsfected with NCX mutants, grown on glass coverslips, were loaded with Fura-2 acetoxymethyl ester (Fura-2AM) (10 µM) for 30 minutes at 37°C in normal Krebs solution containing the following (in mM): 5.5 KCI, 160 NaCl, 1.2 MgCl2, 1.5 CaCl2, 10 glucose, and 10 Hepes-NaOH, pH 7.4. […] Fura-2 fluorescence intensity was measured every 3 seconds. […]

Another experiment deals with T2, NCX3 (Rattus norvegicus, UniProt P70549).
T2 construct: expressed in transfected cells
Briefly: Fura-2 AM single-cell microfluorimetry, BHK-NCX3 cells. The note with it: 10 nM (Fig. 2). As to the method: as §1, §2, §3

In another experiment the target is T3, N1-109/133 (Canis lupus familiaris, UniProt P23685, N157G/T159I/V150L).
T3 construct: expressed in transfected cells
The experiment can be described thus: Na+-dependent 45Ca2+ uptake and efflux on NCX1/NCX3 chimera. The note with it: 10 nM; NCX1 region 109-133 (α1) substituted with NCX3 segment. The source says:
(§4) To deeper investigate on the regions and amino acids present on NCX1 responsible for the interaction with neurounina-1 compound, we utilized chimeric and site-mutated proteins. In particular, we generate chimeric proteins with a large sequence of NCX1 and some regions of NCX3 protein. […] By using the chimeric technique it is possible to determine the importance of NCX1 regions by substituting with analogue segments of NCX3 protein. […] Therefore, these two regions result to be involved in the pharmacological modulation of NCX1 from neurounina-1 compound.
(§5) All experiments aimed to identify the binding site of neurounina-1 were performed on BHK cells stably transfected with a single NCX chimera or mutant.
(§6) The activity of the Na^+/Ca^2+ exchanger was measured by means of ^45Ca^2+ radiotracer variations in the cytoplasm of cells exposed to a protocol stimulating the forward or the reverse mode of the antiporter. The BHK cells expressing each mutated or non-mutated NCX isoform were cultured in 12-well dishes and incubated in 145 mM NaCl for 10 minutes and then in a medium containing only 145 mM N-Methyl D-glucamine (NMDG) and 10 µM of ^45Ca^2+. This rapid substitution of the medium from a high level of Na^+ to another one without Na^+ allow the ^45Ca^2+ influx (reverse mode). Before the medium substitution cells was incubated with 1 mM ouabain, a Na^+/K^+ pump inhibitor, and 10 µM monensin, a ionophore for extracellular Na^+. After 30 seconds incubation, cells were washed with an ice-cold solution containing 2 mM La^3+ to stop ^45Ca^2+ uptake. The medium was removed and cells were subsequently lysed with 0.1 N NaOH and aliquots were taken to determine radioactivity and protein content.
(§7) In order to measure NCX activity in the forward mode, cells were firstly loaded with ^45Ca^2+ and subsequently exposed to a chemical protocol to stimulate the efflux of the radiotracer in the extracellular medium. […] After 60 second, cells were lysed with […] NaOH and aliquots were taken to determine cytoplasmatic radioactivity.

The target of a further experiment is T4, N1-788/829 (Canis lupus familiaris, UniProt P23685, L840F/Q858V/T855L/V852A).
T4 construct: expressed in transfected cells
Described as above. The note with it: 10 nM; NCX1 region 788-829 (α2) substituted with NCX3 segment.
Description: as §4, §5, §6, §7

In experiment [1] the test system is N3-(109/133-788/829) chimera. Described as above. The note with it: 10 nM; NCX3 with α1 and α2 regions of NCX1.
Description: as §4, §5, §6, §7

T1 sequence (P23685 33-970): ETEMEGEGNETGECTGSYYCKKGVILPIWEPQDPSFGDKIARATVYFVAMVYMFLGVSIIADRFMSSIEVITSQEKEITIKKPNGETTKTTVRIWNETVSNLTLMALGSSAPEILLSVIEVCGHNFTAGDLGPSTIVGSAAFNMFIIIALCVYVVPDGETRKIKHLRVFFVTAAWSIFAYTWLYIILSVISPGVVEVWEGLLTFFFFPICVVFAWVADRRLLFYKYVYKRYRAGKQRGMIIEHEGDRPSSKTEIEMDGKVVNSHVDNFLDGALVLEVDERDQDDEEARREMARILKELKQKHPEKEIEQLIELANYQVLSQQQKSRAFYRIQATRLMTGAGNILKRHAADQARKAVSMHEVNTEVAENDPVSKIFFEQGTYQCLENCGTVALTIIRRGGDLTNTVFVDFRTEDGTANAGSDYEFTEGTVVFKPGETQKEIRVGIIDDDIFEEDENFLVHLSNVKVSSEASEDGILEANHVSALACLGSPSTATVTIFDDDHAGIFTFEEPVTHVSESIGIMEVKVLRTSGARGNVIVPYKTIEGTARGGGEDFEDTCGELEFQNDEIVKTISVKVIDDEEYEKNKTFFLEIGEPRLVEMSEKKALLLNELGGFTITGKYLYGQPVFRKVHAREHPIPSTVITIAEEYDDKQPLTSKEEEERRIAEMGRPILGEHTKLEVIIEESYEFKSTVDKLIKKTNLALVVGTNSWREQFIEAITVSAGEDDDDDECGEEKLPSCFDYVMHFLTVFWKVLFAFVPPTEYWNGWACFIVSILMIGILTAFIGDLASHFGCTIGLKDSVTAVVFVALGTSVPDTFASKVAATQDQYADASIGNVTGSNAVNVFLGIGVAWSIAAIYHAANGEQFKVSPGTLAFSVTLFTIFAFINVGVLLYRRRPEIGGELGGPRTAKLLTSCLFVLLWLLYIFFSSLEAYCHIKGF
T3 sequence (P23685 33-970 V150L/N157G/T159I): as the sequence (P23685 33-970) above, with V118L, N125G, T127I counted along it
T2 sequence (P70549 31-927): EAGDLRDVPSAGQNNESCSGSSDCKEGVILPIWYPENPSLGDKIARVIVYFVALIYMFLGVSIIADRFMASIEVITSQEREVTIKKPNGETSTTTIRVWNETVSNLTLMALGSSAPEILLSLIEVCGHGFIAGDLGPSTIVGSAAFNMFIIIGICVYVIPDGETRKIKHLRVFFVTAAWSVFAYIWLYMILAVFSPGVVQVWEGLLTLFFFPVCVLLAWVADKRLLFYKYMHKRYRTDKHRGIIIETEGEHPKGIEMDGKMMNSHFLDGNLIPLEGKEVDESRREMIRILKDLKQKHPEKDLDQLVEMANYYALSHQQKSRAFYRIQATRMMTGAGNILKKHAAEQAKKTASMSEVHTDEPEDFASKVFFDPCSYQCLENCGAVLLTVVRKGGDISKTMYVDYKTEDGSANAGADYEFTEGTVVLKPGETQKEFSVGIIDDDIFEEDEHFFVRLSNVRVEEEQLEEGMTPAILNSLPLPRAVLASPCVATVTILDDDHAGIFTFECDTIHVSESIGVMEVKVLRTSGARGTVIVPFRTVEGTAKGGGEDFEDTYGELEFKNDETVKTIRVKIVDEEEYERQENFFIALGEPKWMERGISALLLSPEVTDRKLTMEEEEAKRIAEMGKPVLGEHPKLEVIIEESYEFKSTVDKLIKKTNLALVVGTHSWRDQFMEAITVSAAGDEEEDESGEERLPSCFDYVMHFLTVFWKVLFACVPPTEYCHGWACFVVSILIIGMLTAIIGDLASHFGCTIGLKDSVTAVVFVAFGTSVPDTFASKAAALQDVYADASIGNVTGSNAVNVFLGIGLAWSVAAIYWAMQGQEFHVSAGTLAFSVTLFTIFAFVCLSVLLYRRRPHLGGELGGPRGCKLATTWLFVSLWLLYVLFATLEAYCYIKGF
T4 sequence (P23685 33-970 L840F/V852A/T855L/Q858V): as the sequence (P23685 33-970) above, with L808F, V820A, T823L, Q826V counted along it

`O=C1CN=C(c2ccccc2)c2cc([N+](=O)[O-])ccc2N1CN1CCCC1` [neurounina-1, 7-nitro-5-phenyl-1-(pyrrolidin-1-ylmethyl)-1H-benzo[e][1,4]diazepin-2(3H)-one]: at NCX1, the “increased reverse mode activity of NCX1” value is 30%. Further, on NCX3, the “activity of Na+/Ca2+ exchange in BHK cells expressing NCX3” value is recorded as “did not show any significant difference”. In addition, the “pharmacological effect on N1-109/133 chimera” value on N1-109/133 is recorded as “removed the pharmacological effect”. Besides, on N1-788/829, the “pharmacological effect on N1-788/829 chimera” value is reported as “removed the pharmacological effect”. Further, the “activity of N3-(109/133-788/829) chimera” value in experiment [1] is recorded as “significantly increased activity”.
